Holding throughout (assay type): cell-based
The target in one assay is TRPML1 (Homo sapiens, UniProt Q9GZU1). Kind of assay: Fluorescent TRPML1 assay (Fluo4-AM calcium fluorescence in doxycycline-induced HEK-293 Trex cells). The essentials: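 EC50 values come from non-linear regression of percent activity, normalized to on-plate positive and negative controls, with fluorescence read at 480 nm excitation and 540 nm emission. Fluo4-AM-loaded (1 µM) doxycycline-induced HEK-293 Trex cells expressing mutated human TRPML1 were exposed in 10 mM calcium Ringer's to 6 nM–20 µM compound, in triplicate.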
Chain of TRPML1 (Q9GZU1 whole entry L15A/L16A/L577A/L578A, form open): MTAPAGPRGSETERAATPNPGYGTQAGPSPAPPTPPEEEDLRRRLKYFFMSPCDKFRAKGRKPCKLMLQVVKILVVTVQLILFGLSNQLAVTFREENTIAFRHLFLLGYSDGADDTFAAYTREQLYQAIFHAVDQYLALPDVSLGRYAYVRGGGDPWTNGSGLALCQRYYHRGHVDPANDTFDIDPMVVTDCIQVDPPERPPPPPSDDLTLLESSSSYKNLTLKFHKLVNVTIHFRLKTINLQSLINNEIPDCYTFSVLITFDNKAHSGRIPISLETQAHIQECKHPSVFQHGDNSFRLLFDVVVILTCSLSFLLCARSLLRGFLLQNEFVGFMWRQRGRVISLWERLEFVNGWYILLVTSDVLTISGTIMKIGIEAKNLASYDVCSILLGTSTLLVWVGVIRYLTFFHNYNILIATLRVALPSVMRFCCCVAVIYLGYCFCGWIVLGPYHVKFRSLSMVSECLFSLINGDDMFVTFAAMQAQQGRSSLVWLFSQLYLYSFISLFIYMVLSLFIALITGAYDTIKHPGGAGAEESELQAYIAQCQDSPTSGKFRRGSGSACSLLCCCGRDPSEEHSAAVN

Another assay deals with T1, TRPML2 (Homo sapiens, UniProt Q8IZK6).
T1 construct: expressed in transfected cells
T1 sequence (Q8IZK6 1-566): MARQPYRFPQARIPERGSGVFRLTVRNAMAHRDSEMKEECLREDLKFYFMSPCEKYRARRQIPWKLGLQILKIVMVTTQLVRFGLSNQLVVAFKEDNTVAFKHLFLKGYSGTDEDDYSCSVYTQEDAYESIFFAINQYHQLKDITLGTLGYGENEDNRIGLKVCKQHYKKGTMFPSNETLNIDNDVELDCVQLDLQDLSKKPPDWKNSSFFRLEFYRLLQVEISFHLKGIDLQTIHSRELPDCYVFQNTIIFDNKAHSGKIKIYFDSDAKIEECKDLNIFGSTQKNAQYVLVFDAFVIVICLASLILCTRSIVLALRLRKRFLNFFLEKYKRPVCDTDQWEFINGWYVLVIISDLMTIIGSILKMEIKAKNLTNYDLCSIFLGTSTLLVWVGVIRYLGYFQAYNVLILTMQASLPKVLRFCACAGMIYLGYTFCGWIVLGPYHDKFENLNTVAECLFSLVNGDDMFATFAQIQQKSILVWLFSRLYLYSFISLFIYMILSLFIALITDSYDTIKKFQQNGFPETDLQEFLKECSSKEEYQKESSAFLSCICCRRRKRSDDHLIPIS
The experiment in a line: Fluorescent TRPML2 assay (performed as for TRPML1, substituting the TRPML2 subtype). In outline:
(§1)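 Calcium-influx readout: Fluo4 fluorescence at 480/540 nm, normalised to positive and negative controls per plate, EC50 fitted by non-linear regression. Cells were HEK-293 Trex stable lines, channel expression induced overnight with 0.5 ug/mL doxycycline; tested at 20 micromolar down to 6 nanomolar final, half-log steps, triplicate.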

The target in a further assay is T2, TRPML3 (Homo sapiens, UniProt Q8TDD5).
T2 construct: expressed in transfected cells
T2 sequence (Q8TDD5 1-553): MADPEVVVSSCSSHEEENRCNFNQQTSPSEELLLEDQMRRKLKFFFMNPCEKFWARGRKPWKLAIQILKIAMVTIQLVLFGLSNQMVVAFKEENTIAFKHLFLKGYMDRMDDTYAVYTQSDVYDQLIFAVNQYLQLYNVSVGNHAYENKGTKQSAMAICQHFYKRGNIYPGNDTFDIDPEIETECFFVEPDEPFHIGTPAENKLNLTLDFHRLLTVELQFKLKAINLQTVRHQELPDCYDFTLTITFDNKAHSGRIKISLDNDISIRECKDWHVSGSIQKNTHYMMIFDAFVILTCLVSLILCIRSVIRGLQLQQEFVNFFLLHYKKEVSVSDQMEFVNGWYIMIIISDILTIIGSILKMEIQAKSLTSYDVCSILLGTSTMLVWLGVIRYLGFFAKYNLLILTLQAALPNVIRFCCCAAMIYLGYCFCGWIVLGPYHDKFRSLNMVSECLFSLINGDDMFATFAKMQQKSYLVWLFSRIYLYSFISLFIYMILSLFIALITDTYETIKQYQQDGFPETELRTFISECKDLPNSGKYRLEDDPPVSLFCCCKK
Kind of assay: Fluorescent TRPML3 assay (performed as for TRPML1, substituting the TRPML3 subtype). The essentials:
as §1

Molecules are shown by their SMILES.

The EC50 is the concentration giving half of the maximal effect.

As for `Cc1cn(-c2cc(F)cc(Cl)c2)c2ncnc(N3CCN(C(=O)OC(C)(C)C)C[C@@H]3C)c12` [Compound 693, tert-butyl (S)-4-(7-(3-chloro-5-fluorophenyl)-5-methyl-7H-pyrrolo[2,3-d]pyrimidin-4-yl)-3-methylpiperazine-1-carboxylate], the EC50 on TRPML1 is below 100 nM; on TRPML2, 100 to 500 nM; on TRPML3, below 100 nM.
Regarding `C[C@@H]1CN(c2ncnc3c2c(C(F)F)cn3-c2cccc(F)c2)[C@@H](C)CN1C(=O)OC(C)(C)C` [Compound 695, tert-butyl (2R,5S)-4-(5-(difluoromethyl)-7-(3-fluorophenyl)-7H-pyrrolo[2,3-d]pyrimidin-4-yl)-2,5-dimethylpiperazine-1-carboxylate], the concentration for a half-maximal effect (EC50) at TRPML1 is below 100 nM; at TRPML2 it was 100 to 500 nM; at TRPML3 it was below 100 nM.
On to `CCc1cn(-c2cc(C(F)(F)F)ccn2)c2ncnc(N3C[C@@H](C)N(C(=O)OC(C)(C)C)C[C@@H]3C)c12` [Compound 696, tert-butyl (2R,5S)-4-(5-ethyl-7-(4-(trifluoromethyl)pyridin-2-yl)-7H-pyrrolo[2,3-d]pyrimidin-4-yl)-2,5-dimethylpiperazine-1-carboxylate], for which the EC50 at TRPML1, on TRPML2 and on TRPML3 was below 100 nM in each case.
`CCc1cn(-c2cc(F)ccn2)c2ncnc(N3C[C@@H](C)N(C(=O)OC(C)(C)C)C[C@@H]3C)c12` [Compound 697, tert-butyl (2R,5S)-4-(5-ethyl-7-(4-fluoropyridin-2-yl)-7H-pyrrolo[2,3-d]pyrimidin-4-yl)-2,5-dimethylpiperazine-1-carboxylate]: the half-maximal effective concentration (EC50) on TRPML1, at TRPML2 and on TRPML3 was below 100 nM in each case.
Take `CC(C)c1cn(-c2cc(F)ccn2)c2ncnc(N3C[C@@H](C)N(C(=O)OC(C)(C)C)C[C@@H]3C)c12` [Compound 698, tert-butyl (2R,5S)-4-(7-(4-fluoropyridin-2-yl)-5-isopropyl-7H-pyrrolo[2,3-d]pyrimidin-4-yl)-2,5-dimethylpiperazine-1-carboxylate]: the figures for the 50% effective concentration (EC50) on TRPML1, on TRPML2 and on TRPML3 were below 100 nM, 100 to 500 nM and below 100 nM, respectively.
For the compound `CC(C)c1cn(-c2cc(C(F)(F)F)ccn2)c2ncnc(N3C[C@@H](C)N(C(=O)OC(C)(C)C)C[C@@H]3C)c12` [Compound 699, tert-butyl (2R,5S)-4-(5-isopropyl-7-(4-(trifluoromethyl)pyridin-2-yl)-7H-pyrrolo[2,3-d]pyrimidin-4-yl)-2,5-dimethylpiperazine-1-carboxylate], the EC50 at TRPML1 is below 100 nM; at TRPML2 it was 100 to 500 nM; at TRPML3, below 100 nM.
For the compound `CC(C)c1cn(-c2cc(C#N)ccn2)c2ncnc(N3C[C@@H](C)N(C(=O)OC(C)(C)C)C[C@@H]3C)c12` [Compound 700, tert-butyl (2R,5S)-4-(7-(4-cyanopyridin-2-yl)-5-isopropyl-7H-pyrrolo[2,3-d]pyrimidin-4-yl)-2,5-dimethylpiperazine-1-carboxylate], the half-maximal effective concentration (EC50) on TRPML1 was below 100 nM; at TRPML2 it was 100 to 500 nM; on TRPML3 it was below 100 nM.
Take `Cc1cn(-c2cc(F)ccn2)c2ccnc(N3C[C@@H](C)N(C(=O)OC(C)(C)C)C[C@@H]3C)c12` [Compound 701, tert-butyl (2R,5S)-4-(1-(4-fluoropyridin-2-yl)-3-methyl-1H-pyrrolo[3,2-c]pyridin-4-yl)-2,5-dimethylpiperazine-1-carboxylate]: the EC50 was below 100 nM at TRPML1, above 2000 nM on TRPML2 and 100 to 500 nM on TRPML3.
The like results for `Cc1cn(-c2cc(C(F)(F)F)ccn2)c2ccnc(N3C[C@@H](C)N(C(=O)OC(C)(C)C)C[C@@H]3C)c12` [Compound 702, tert-butyl (2R,5S)-2,5-dimethyl-4-(3-methyl-1-(4-(trifluoromethyl)pyridin-2-yl)-1H-pyrrolo[3,2-c]pyridin-4-yl)piperazine-1-carboxylate] were, in that order, below 100 nM, 500 to 2000 nM and 500 to 2000 nM.
On the same counts, the results for `C[C@H]1CN(C(=O)OC(C)(C)C)CCN1c1nccc2c1c(-c1ccccc1F)cn2-c1cccc(F)c1` [Compound 703, tert-butyl (S)-4-(3-(2-fluorophenyl)-1-(3-fluorophenyl)-1H-pyrrolo[3,2-c]pyridin-4-yl)-3-methylpiperazine-1-carboxylate] are below 100 nM, below 100 nM and below 100 nM.
On the same counts, the results for `C[C@@H]1CN(c2nccc3c2c(C2CC2)cn3-c2cccc(F)c2)CCN1C(=O)OC(C)(C)C` [Compound 704, tert-butyl (R)-4-(3-cyclopropyl-1-(3-fluorophenyl)-1H-pyrrolo[3,2-c]pyridin-4-yl)-2-methylpiperazine-1-carboxylate] are below 100 nM, below 100 nM and below 100 nM.
As for `Cc1cn(-c2cc(C#N)ccn2)c2ccnc(N3C[C@@H](C)N(C(=O)OC(C)(C)C)C[C@@H]3C)c12` [Compound 705, tert-butyl (2R,5S)-4-(1-(4-cyanopyridin-2-yl)-3-methyl-1H-pyrrolo[3,2-c]pyridin-4-yl)-2,5-dimethylpiperazine-1-carboxylate], the concentration for a half-maximal effect (EC50) was below 100 nM on TRPML1, 500 to 2000 nM at TRPML2 and below 100 nM at TRPML3.
With `C[C@H]1CN(C(=O)OC(C)(C)C)CCN1c1nccc2c1c(C1CCC1)cn2-c1cccc(F)c1` [Compound 706, tert-butyl (S)-4-(3-cyclobutyl-1-(3-fluorophenyl)-1H-pyrrolo[3,2-c]pyridin-4-yl)-3-methylpiperazine-1-carboxylate], the EC50 on TRPML1 lay within 100 to 500 nM; on TRPML2, 500 to 2000 nM; on TRPML3, 100 to 500 nM.
For the compound `[2H]C([2H])([2H])[C@@H]1CN(c2ncnc3c2c(C(F)(F)F)cn3-c2cc(C#N)ccn2)[C@@H](C)CN1C(=O)OC(C)(C)C` [Compound 707, tert-butyl (2R,5S)-4-(7-(4-cyanopyridin-2-yl)-5-(trifluoromethyl)-7H-pyrrolo[2,3-d]pyrimidin-4-yl)-5-methyl-2-(methyl-d3)piperazine-1-carboxylate], the concentration giving a half-maximal response (EC50) on TRPML1, at TRPML2 and at TRPML3 was below 100 nM each time.
For `CC(C)(C)OC(=O)N1CCN(c2ncnc3c2c(C(F)(F)F)cn3-c2cc(C#N)ccn2)CC1` [Compound 708, tert-butyl 4-(7-(4-cyanopyridin-2-yl)-5-(trifluoromethyl)-7H-pyrrolo[2,3-d]pyrimidin-4-yl)piperazine-1-carboxylate], the 50% effective concentration (EC50) on TRPML1, at TRPML2 and on TRPML3 was 500 to 2000 nM each time.
As to `[2H]C([2H])([2H])[C@@H]1CN(c2ncnc3c(-c4cc(C#N)ccn4)cn(-c4ccccc4F)c23)[C@@H](C)CN1C(=O)OC(C)(C)C` [Compound 709, tert-butyl (2R,5S)-4-(7-(4-cyanopyridin-2-yl)-5-(2-fluorophenyl)-5H-pyrrolo[3,2-d]pyrimidin-4-yl)-5-methyl-2-(methyl-d3)piperazine-1-carboxylate], the EC50 at TRPML1, on TRPML2 and on TRPML3 was below 100 nM throughout.
Consider `C[C@@H]1CN(c2ncnc3c2c(C2CCC2)cn3-c2cc(C#N)ccn2)[C@@H](C)CN1C(=O)OC(C)(C)C` [Compound 710, tert-butyl (2R,5S)-4-(7-(4-cyanopyridin-2-yl)-5-cyclobutyl-7H-pyrrolo[2,3-d]pyrimidin-4-yl)-2,5-dimethylpiperazine-1-carboxylate], for which the concentration for a half-maximal effect (EC50) was below 100 nM at TRPML1, 100 to 500 nM at TRPML2 and below 100 nM at TRPML3.
On to `[2H]C([2H])([2H])[C@@H]1CN(c2ncnc3c2c(C2CC2)cn3-c2cc(C#N)ccn2)[C@@H](C)CN1C(=O)OC(C)(C)C` [Compound 711, tert-butyl (2R,5S)-4-(7-(4-cyanopyridin-2-yl)-5-cyclopropyl-7H-pyrrolo[2,3-d]pyrimidin-4-yl)-5-methyl-2-(methyl-d3)piperazine-1-carboxylate], for which the 50% effective concentration (EC50) at TRPML1 is below 100 nM; at TRPML2, 500 to 2000 nM; on TRPML3 it was 100 to 500 nM.

The record behind these values is patent US20250136606A1, “MODULATORS OF TRPML, THEIR COMPOSITIONS AND METHODS OF USE” (Caraway Therapeutics, Inc., priority 2021, published 2025).
